The experiment relates to HCV (Ib) RNA replication. Kind of experiment: Cell-based luciferase reporter HCV (1b) RNA replication assay (replicon cell lines Huh-7 5.2 and ET). Further details: species or system Hepatitis C virus. The settings on record: Hepatitis C virus, Huh-7, 96 h, HCV 1b genotype replicon, luciferase readout, 4 days incubation; read-out: EC50_1b. In a few lines: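 Huh-7-derived 5.2 or ET replicon cells carrying a firefly luciferase reporter were seeded at ~3000 cells/well in medium without G418 or phenol red. Compound was added after 3-4 h, followed by 4 days at 37 °C. Luciferase readout was used, with IC50 fitted by nonlinear regression from eleven concentrations in duplicate.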

Bounds are passed on as bounds.

With `COC(=O)N[C@H](C(=O)N1C[C@@H](C)C[C@H]1c1nc2cc(-c3sc4c(C)c(-c5ccc6[nH]c([C@@H]7C[C@H](C)CN7C(=O)[C@@H](NC(=O)OC)C(C)C)nc6c5)sc4c3C)ccc2[nH]1)C(C)C` [Compound 331], the EC50 is no more than 5 nM.

Turning to `COC(=O)N[C@H](C(=O)N1C[C@@H](C)C[C@H]1c1nc2cc(-c3cc4cc(-c5ccc6[nH]c([C@@H]7C[C@H](C)CN7C(=O)[C@@H](NC(=O)OC)C(C)C)nc6c5)sc4s3)ccc2[nH]1)C(C)C` [Compound 332], the EC50 is no more than 5 nM.

For the origin of these results see patent US8354419B2, “Benzimidazole analogues for the treatment or prevention of flavivirus infections” (Vertex Pharmaceuticals Incorporated, priority 2009, dated 2013).
